# Source: patent publication US20240277873A1, “ULTRABRIGHT […] PROBES FOR DETECTION AND IMAGING” (Nanyang Technological University, priority 2021, published 2024)
# Experiments:
# [1] = Blood test: chemiluminescence after incubation in healthy mouse blood; conditions: 20 μM, 30 min, 100 μL blood
# Method: BTPDNe (20 μM) and MPDNe (20 μM) were incubated for 30 min in healthy mouse blood (100 μL), respectively. Chemiluminescence intensities were measured by IVIS system bioluminescence with an acquisition time of 60 s.
# [2] = system: dorsal skins of mice; test: Histopathologic, immunohistochemical and flow cytometry analyses of dorsal skins (IMQ psoriasis model); format: in vivo, BALB/c mice; conditions: fresh slides of dorsal skins, 2-day IMQ treatment, immunofluorescence
# Method: The control group was treated with Vaseline (50 mg/d) and the IMQ-treatment group was applied with IMQ cream (60 mg/d, 5%) once a day. […] Probe BTPDNe (10 uM, 1 mM in DMSO) was thoroughly mixed with Aquaphor (˜10 mg) and applied for psoriasis imaging, followed by poly(methyl methacrylate) microneedle treatment for 1 min. Then, chemiluminescent signals at different time-points (0, 3, 5, 10, 15, 30, 45 and 60 min) after probe-treatment were recorded using IVIS system bioluminescence with acquiring time of 180 s. Until the third day, all the mice were sacrificed to collect tissue and blood for further experiments (hematoxylin and eosin (H&E) staining and flow cytometry analysis) as described in Example 11.
# The dorsal skin samples were separated and soaked in 4% paraformaldehyde (4% PFA) for 12 h and immersed in 30% sucrose solution. The skin samples were stained by hematoxylin and eosin (H&E). Then, the samples were flash-frozen by liquid nitrogen, immobilized with optimal cutting temperature compound, and section slices ([…]). The thickness of epidermis was observed under a microscope (Nikon ECLIPSE 80i microscope). APC-Ly6G, as a neutrophil marker, was used to stain neutrophil cells and DAPI was applied for cell nucleus staining. The immunofluorescence was observed by Nikon ECLIPSE 80i microscope.
# After performing in vivo chemiluminescence imaging of neutrophils using BTPDNe in psoriasis-bearing mice with 2 day IMQ treatment, fresh section slices from dorsal skins were stained with Ly6G. Immunofluorescence imaging of slices with activated BTPDNe in green color was observed upon excitation at 405 nm and emission at 500-550 nm, while red color from Ly6G was observed upon excitation from 633-647 nm and emission at 660 nm. The immunofluorescence imaging was acquired by Nikon ECLIPSE 80i microscope.
smiles,measurement,setting,value
COC1(c2ccc(-c3nc4ccccc4s3)c(OCc3ccc(NC(=O)[C@@H](NC(=O)[C@@H]4CCCN4C(=O)[C@H](C)NC(=O)[C@H](C)NC(C)=O)C(C)C)cc3)c2)OOC12C1CC3CC(C1)CC2C3 (some centres unmarked) [BTPDNe],chemiluminescence intensities after incubation with healthy mouse blood,[1],Negligible
same,colocalization of probe activation with neutrophil marker,[2],colocalized well with APC-Ly6G
